Series [1] deals with T1, C-C chemokine receptor type 4 (Homo sapiens, UniProt P51679).
T1 sequence (P51679 whole entry): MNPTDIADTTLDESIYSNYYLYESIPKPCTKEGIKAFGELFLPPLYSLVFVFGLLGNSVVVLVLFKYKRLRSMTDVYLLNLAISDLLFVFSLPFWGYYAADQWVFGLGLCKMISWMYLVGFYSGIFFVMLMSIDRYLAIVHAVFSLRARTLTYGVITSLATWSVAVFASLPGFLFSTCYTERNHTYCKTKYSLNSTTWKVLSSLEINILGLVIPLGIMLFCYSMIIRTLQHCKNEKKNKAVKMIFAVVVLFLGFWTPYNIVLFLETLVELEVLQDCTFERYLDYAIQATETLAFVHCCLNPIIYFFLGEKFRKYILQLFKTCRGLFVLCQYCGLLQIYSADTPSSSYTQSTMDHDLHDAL
The class given is cell membranes, Membrane. The settings on record: chem-1.

In series [2] the target is Sodium-dependent dopamine transporter (Homo sapiens, UniProt Q01959). Put plainly: DRUGMATRIX: Dopamine Transporter radioligand binding (ligand: [125I] RTI-55). The class given is cell membranes, CHO-K1, Membrane. The settings on record: Not Active = under 50% inhibition at 10 µM; for Ki: read-out: Ki.
Series [3] is described as follows: DRUGMATRIX: GABAA, Flunitrazepam, Central radioligand binding (ligand: [3H] Flunitrazepam). Particulars: Not Active = under 50% inhibition at 10 µM. The class given is cell membranes, Rattus norvegicus, Wistar, Brain, Membrane.
The target in a further series is Glycine receptor (Rattus norvegicus, UniProt P22771+P24524+P07727+P20781). The class given is cell membranes, Wistar, Spinal cord, Membrane. Note: in other assays of this panel Not Active means under 50% inhibition at 10 µM.
Another series addresses Histamine H2 receptor (Homo sapiens, UniProt P25021). The class given is cell membranes, CHO-K1, Membrane. The settings on record: cho-k1.
The target in series [4] is Protein kinase C alpha type (Homo sapiens, UniProt P17252). The class given is cell-based. Particulars: sf9.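 Note: inhibition of PKCalpha kinase activity measured in an enzyme assay with histone as the phosphorylation substrate; in other assays of this panel Not Active means under 50% inhibition at 10 µM.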
The target in series [5] is T2, Receptor-type tyrosine-protein phosphatase C (Homo sapiens, UniProt P08575).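 Note: inhibition of CD45 enzyme activity measured using DiFMUP as substrate; in other assays of this panel Not Active means under 50% inhibition at 10 µM.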
T2 sequence (P08575 whole entry): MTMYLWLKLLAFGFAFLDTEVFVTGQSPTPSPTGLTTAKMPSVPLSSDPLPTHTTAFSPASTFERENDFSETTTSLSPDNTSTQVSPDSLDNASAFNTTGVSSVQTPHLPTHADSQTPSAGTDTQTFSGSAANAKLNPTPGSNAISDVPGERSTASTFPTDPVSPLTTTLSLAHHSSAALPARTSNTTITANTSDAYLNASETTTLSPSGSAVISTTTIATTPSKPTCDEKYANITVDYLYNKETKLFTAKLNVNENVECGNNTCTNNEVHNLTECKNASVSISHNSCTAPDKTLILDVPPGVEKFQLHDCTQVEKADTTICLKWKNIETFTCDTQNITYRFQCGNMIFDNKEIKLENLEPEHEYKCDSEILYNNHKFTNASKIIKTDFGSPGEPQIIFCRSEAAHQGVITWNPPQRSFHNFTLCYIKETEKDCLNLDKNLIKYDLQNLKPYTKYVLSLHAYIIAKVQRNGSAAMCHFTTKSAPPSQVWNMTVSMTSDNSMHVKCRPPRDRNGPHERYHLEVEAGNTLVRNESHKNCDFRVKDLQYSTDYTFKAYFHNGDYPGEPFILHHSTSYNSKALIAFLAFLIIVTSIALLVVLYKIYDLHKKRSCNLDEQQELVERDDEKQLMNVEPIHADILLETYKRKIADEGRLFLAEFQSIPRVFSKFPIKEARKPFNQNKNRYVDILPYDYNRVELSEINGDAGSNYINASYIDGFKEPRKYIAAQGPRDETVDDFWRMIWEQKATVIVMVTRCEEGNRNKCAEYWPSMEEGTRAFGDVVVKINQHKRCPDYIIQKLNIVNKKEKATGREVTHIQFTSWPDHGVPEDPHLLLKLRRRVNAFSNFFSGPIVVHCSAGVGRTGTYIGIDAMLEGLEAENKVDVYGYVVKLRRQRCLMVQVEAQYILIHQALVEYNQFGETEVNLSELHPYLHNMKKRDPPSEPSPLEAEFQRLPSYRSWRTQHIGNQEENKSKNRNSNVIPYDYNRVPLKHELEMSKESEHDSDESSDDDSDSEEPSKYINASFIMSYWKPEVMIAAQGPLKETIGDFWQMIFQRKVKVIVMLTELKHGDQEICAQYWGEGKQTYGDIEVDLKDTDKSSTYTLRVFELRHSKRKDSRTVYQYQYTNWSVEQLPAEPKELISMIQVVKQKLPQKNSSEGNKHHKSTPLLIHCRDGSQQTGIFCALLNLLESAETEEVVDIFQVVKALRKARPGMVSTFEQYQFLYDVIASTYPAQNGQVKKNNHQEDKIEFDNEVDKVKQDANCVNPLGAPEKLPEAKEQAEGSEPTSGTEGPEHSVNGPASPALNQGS
Details: species or system Escherichia coli.

Another series concerns the target T3, Cytochrome P450 2A6 (Homo sapiens, UniProt P11509). Note: in other assays of this panel Not Active means under 50% inhibition at 10 µM.
T3 sequence (P11509 whole entry): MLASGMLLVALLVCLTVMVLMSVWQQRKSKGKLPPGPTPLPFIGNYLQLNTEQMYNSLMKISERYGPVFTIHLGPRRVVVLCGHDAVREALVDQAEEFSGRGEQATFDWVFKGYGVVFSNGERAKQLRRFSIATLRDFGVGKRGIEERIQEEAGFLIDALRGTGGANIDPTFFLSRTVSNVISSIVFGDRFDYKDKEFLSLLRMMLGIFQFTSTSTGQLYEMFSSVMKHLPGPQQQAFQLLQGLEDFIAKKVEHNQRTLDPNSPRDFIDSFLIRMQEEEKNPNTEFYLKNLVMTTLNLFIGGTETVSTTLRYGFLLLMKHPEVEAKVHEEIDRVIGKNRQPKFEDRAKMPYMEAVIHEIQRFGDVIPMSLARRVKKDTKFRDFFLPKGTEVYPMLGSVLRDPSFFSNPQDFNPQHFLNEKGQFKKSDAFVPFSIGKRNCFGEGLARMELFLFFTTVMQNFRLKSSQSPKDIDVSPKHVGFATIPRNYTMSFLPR
Particulars: bti-tn-5b1-4.

Chain of Histamine H2 receptor (P25021 whole entry): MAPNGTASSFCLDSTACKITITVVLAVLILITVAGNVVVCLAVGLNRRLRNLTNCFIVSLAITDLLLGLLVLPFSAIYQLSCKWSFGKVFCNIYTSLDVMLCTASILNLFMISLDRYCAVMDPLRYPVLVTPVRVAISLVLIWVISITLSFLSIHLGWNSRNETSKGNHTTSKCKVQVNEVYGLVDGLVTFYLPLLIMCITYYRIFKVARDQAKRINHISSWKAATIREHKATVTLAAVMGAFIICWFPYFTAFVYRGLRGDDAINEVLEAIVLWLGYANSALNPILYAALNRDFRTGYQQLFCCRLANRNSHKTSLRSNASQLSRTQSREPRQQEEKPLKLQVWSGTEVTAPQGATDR
Chain of Sodium-dependent dopamine transporter (Q01959 whole entry): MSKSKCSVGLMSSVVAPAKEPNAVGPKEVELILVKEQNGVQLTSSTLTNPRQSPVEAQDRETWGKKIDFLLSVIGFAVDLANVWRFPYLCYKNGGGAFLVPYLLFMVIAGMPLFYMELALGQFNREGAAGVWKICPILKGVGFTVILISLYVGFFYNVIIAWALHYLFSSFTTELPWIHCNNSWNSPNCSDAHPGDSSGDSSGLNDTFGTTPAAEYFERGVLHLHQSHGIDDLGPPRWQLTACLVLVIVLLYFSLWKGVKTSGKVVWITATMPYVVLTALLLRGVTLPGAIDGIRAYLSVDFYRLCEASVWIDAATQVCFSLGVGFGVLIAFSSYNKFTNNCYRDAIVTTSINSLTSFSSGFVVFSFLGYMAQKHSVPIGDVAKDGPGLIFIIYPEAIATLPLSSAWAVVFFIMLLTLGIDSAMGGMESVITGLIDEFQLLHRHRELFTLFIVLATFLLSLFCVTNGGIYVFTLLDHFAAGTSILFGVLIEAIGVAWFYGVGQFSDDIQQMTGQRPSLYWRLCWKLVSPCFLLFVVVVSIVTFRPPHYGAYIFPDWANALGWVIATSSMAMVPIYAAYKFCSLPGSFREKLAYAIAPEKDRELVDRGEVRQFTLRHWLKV

Consider `CCN[C@@H](C)Cc1cccc(C(F)(F)F)c1` [DEXFENFLURAMINE], for which the IC50 entry (in series [1]; in series [2] (cho-k1); in series [3]; against Glycine receptor; at Histamine H2 receptor; in series [4]) was “Not Active” each time. The IC50 entry (in series [5]; against Cytochrome P450 2A6) was “Not Active” each time. In addition, the Ki entry (in series [3]; on Cytochrome P450 2A6) was “Not Active” throughout.

In the case of `C[C@H](C(=O)O)c1cccc(C(=O)c2ccccc2)c1` [DEXKETOPROFEN], the IC50 entry (in series [1]; in series [2] (cho-k1); in series [3]; at Glycine receptor; at Histamine H2 receptor; in series [4]) was “Not Active” in each case. In addition, the IC50 result (in series [5]; against Cytochrome P450 2A6) was “Not Active” each time. Besides, the Ki result (in series [3]; on Cytochrome P450 2A6) was “Not Active” in each case.

Regarding `CN1C(=O)CN=C(c2ccccc2)c2cc(Cl)ccc21` [DIAZEPAM], the IC50 (commonly the concentration that gives 50% inhibition) was “Not Active” in series [1]; “Not Active” in series [2] (cho-k1); 0.0288 µM in series [3] (read-out: IC50); “Not Active” against Glycine receptor; “Not Active” against Histamine H2 receptor; “Not Active” in series [4]. Further, the IC50 result (in series [5]; at Cytochrome P450 2A6) was “Not Active” each time. The inhibition constant (Ki) (usually a dissociation constant, usually derived from enzyme kinetics or from competition with a known ligand) in series [3] (read-out: Ki) is 0.0235 µM; at Cytochrome P450 2A6 it was “Not Active”.

With `CN1C[C@H](C(=O)N[C@]2(C)O[C@@]3(O)[C@@H]4CCCN4C(=O)[C@H](Cc4ccccc4)N3C2=O)C[C@@H]2c3cccc4[nH]cc(c34)C[C@H]21` [DIHYDROERGOTAMINE], the half-inhibitory concentration (IC50) result (in series [1]; in series [2] (cho-k1); in series [3]; against Glycine receptor; on Histamine H2 receptor; in series [4]) was “Not Active” throughout. In addition, the IC50 result (in series [5]; on Cytochrome P450 2A6) was “Not Active” in each case. Moreover, the inhibition constant (Ki) result (in series [3]; on Cytochrome P450 2A6) was “Not Active” each time.

On to `Cc1c(N(C)CS(=O)(=O)[O-])c(=O)n(-c2ccccc2)n1C.[Na+]` [DIPYRONE SODIUM], for which the IC50 entry (in series [1]; in series [2] (cho-k1); in series [3]; on Glycine receptor; against Histamine H2 receptor; in series [4]) was “Not Active” each time. The IC50 entry (in series [5]; at Cytochrome P450 2A6) was “Not Active” each time. In addition, the Ki entry (in series [3]; on Cytochrome P450 2A6) was “Not Active” in each case.

For the compound `CC(CCc1ccc(O)cc1)NCCc1ccc(O)c(O)c1` (configuration not stated) [DOBUTAMINE], the IC50 result in series [1] was “Not Active”; in series [2] (read-out: IC50), 0.155 µM; in series [3], “Not Active”; against Glycine receptor it was “Not Active”; at Histamine H2 receptor, “Not Active”; in series [4], “Not Active”. Further, the concentration for half-maximal inhibition (IC50) result (in series [5]; against Cytochrome P450 2A6) was “Not Active” in each case. Further, the Ki in series [2] was 0.123 µM; in series [3] it was “Not Active”; at Cytochrome P450 2A6, “Not Active”.

On to `CCn1cc(C(=O)O)c(=O)c2cc(F)c(N3CCNCC3)nc21` [ENOXACIN], for which the half-inhibitory concentration (IC50) result (in series [1]; in series [2] (cho-k1); in series [3]; on Glycine receptor; against Histamine H2 receptor; in series [4]) was “Not Active” in each case. The IC50 result (in series [5]; against Cytochrome P450 2A6) was “Not Active” throughout. In addition, the Ki entry (in series [3]; on Cytochrome P450 2A6) was “Not Active” in each case.

Regarding `CCC(=O)O[C@H]1[C@H](O[C@@H]2[C@@H](C)[C@H](O[C@H]3C[C@@](C)(OC)[C@@H](O)[C@H](C)O3)[C@@H](C)C(=O)O[C@H](CC)[C@@](C)(O)[C@H](O)[C@@H](C)C(=O)[C@H](C)C[C@@]2(C)O)O[C@H](C)C[C@@H]1N(C)C` [ERYTHROMYCIN PROPIONATE], the IC50 entry (in series [1]; in series [2] (cho-k1); in series [3]; at Glycine receptor; at Histamine H2 receptor; in series [4]) was “Not Active” each time. In addition, the IC50 entry (in series [5]; against Cytochrome P450 2A6) was “Not Active” throughout. For the same compound, the Ki entry (in series [3]; at Cytochrome P450 2A6) was “Not Active” throughout.

On to `C=C(CC)C(=O)c1ccc(OCC(=O)O)c(Cl)c1Cl` [ETHACRYNIC ACID], for which the IC50 result (in series [1]; in series [2] (cho-k1); in series [3]; against Glycine receptor; against Histamine H2 receptor; in series [4]) was “Not Active” each time. Further, the IC50 entry (in series [5]; against Cytochrome P450 2A6) was “Not Active” throughout. The Ki entry (in series [3]; on Cytochrome P450 2A6) was “Not Active” in each case.

For `C#C[C@]1(O)CC[C@H]2[C@@H]3CCc4cc(O)ccc4[C@H]3CC[C@@]21C` [ETHINYL ESTRADIOL], the IC50 result in series [1] is “Not Active”; in series [2] (read-out: IC50), 0.559 µM; in series [3], “Not Active”; against Glycine receptor, “Not Active”; at Histamine H2 receptor, “Not Active”; in series [4], “Not Active”. In addition, the IC50 result (in series [5]; against Cytochrome P450 2A6) was “Not Active” in each case. In addition, the figures for the Ki (in series [2]; in series [3]; at Cytochrome P450 2A6) were 0.444 µM, “Not Active” and “Not Active”, respectively.

Take `OCCO` [ETHYLENE GLYCOL]: the IC50 result (in series [1]; in series [2] (cho-k1); in series [3]; against Glycine receptor; against Histamine H2 receptor; in series [4]) was “Not Active” each time. Further, the IC50 entry (in series [5]; against Cytochrome P450 2A6) was “Not Active” in each case. Moreover, the Ki result (in series [3]; on Cytochrome P450 2A6) was “Not Active” in each case.

For the compound `CC(=O)OCC(CCn1cnc2cnc(N)nc21)COC(C)=O` [FAMCICLOVIR], the IC50 entry (in series [1]; in series [2] (cho-k1); in series [3]; at Glycine receptor; against Histamine H2 receptor; in series [4]) was “Not Active” in each case. The concentration for half-maximal inhibition (IC50) entry (in series [5]; against Cytochrome P450 2A6) was “Not Active” throughout. Besides, the Ki result (in series [3]; at Cytochrome P450 2A6) was “Not Active” each time.

Source of the values: ChEMBL document CHEMBL1909046, “DrugMatrix in vitro pharmacology data”.
